From patent publication US9802899B2, “Heterocyclic compounds as pesticides” (BAYER CROPSCIENCE AG, priority 2012, dated 2017) come the findings set out here.

A short description of the first series: Determination of the log P values by HPLC (formic acid method). The format is physicochemical. The following applies: reversed-phase HPLC column (C 18), reversed-phase column (C 18), acidic range (pH 3.4), 55° C. How it is done: 1) Description of Method for Determination of the Log P Values (Formic Acid Method)
Eluents for determination in the acidic range (pH 3.4):
Eluent A: acetonitrile+1 ml of formic acid/liter. Eluent B: water+0.9 ml of formic acid/liter.
The lambda max values were determined in the maxima of the chromatographic signals using the UV spectra from 200 nm to 400 nm.
Usually chromatographic logP stands for lipophilicity estimated from chromatographic retention. Low readings indicate a more hydrophilic compound, high ones a more lipophilic compound. `Nc1ccn(-c2nccc(I)c2F)n1` [1-(3-Fluoro-4-iodopyridin-2-yl)-1H-pyrazole-3-amine]: the chromatographic logP stood at 1.38.
`CC(=O)Nc1cc(F)c(-n2ccc(NC(=O)c3ccccc3C(F)(F)F)n2)c(F)c1` [Compound I-1-583, N-[1-(4-Acetamido-2,6-difluorophenyl)-1H-pyrazol-3-yl]-2-(trifluoromethyl)benzamide] gave a chromatographic logP of 2.28.
On the same count and under the same terms, with `Nc1cnn(-c2ncc(Cl)cc2Cl)n1` [2-(3,5-Dichloropyridin-2-yl)-2H-1,2,3-triazole-4-amine] the figure was 1.38; with `Nc1nn(-c2ccccc2Cl)c2ccccc12` [1-(2-Chlorophenyl)-1H-indazole-3-amine], 2.32.
`Nc1cnn(-c2ncc(C(F)(F)F)cc2Cl)n1` [2-[3-Chloro-5-(trifluoromethyl)pyridin-2-yl]-2H-1,2,3-triazole-4-amine] returned a chromatographic logP of 1.74.
Consider `N#Cc1ccc(-n2ccc(NC(=O)c3ccccc3C(F)(F)F)n2)nc1Cl` [Compound I-1-608, N-[1-(6-Chloro-5-cyanopyridin-2-yl)-1H-pyrazol-3-yl]-2-(trifluoromethyl)benzamide], for which the chromatographic logP is 3.17.
The compound `Nc1nn(-c2ccccc2Cl)cc1Br` [4-Bromo-1-(2-chlorophenyl)-1H-pyrazole-3-amine] came in with a chromatographic logP of 2.23.
Compound `CCOc1cccc(F)c1-n1ccc(N)n1` [1-(2-Ethoxy-6-fluorophenyl)-1H-pyrazole-3-amine] returned a chromatographic logP of 1.47.
Same read-out and setting: to `Nc1ccn(-c2ncnc(F)c2F)n1` [1-(5,6-Difluoropyrimidin-4-yl)-1H-pyrazole-3-amine] belongs 0.86; to `N#Cc1c(Cl)ccnc1-n1ccc(NC(=O)c2ccccc2C(F)(F)F)n1` [Compound I-1-586, N-[1-(4-Chloro-3-cyanopyridin-2-yl)-1H-pyrazol-3-yl]-2-(trifluoromethyl)benzamide], 2.67.

Still in this series, the particulars now being: reversed-phase column (C 18), acidic range (pH 3.4), 55° C.
The log P is the decadic logarithm of the partition coefficient of the neutral form, usually between octanol and water. High values mean a more lipophilic compound, low ones a more hydrophilic compound. Turning to `Cc1snnc1C(=O)Nc1ccn(-c2ncc(F)cc2F)n1` [Compound I-1-546], the “log P” value is on record as 2.15.
With `O=C(Nc1ccn(-c2cnc(Cl)cn2)n1)c1ccccc1C(F)(F)F` [Compound I-1-385], the “log P” value is 2.94.
`O=C(Nc1ccn(-c2ncc(Cl)cc2Cl)n1)c1cccnc1Br` [Compound I-1-431]: the “log P” value turned out to be 2.29.
As for `Cc1nc(-n2ccc(NC(=O)c3c(F)cccc3F)n2)c(F)cc1F` [Compound I-1-441], the “log P” value is given as 2.56.
Still for that read-out and setting: with `Cc1cc(NC(=O)c2cccnc2Br)nn1-c1ccccc1Cl` [Compound I-1-359] the figure was 1.85.
Consider `Cn1cncc1C(=O)Nc1ccn(-c2c(F)cccc2F)n1` [Compound I-1-644], for which the “log P” value turned out to be 0.99.
Still for that read-out and setting: with `O=C(Nc1ccn(-c2nccnc2F)n1)c1c(F)cccc1F` [Compound I-1-177] the figure was 1.94; with `O=C(Nc1ccn(-c2ncccc2F)n1)c1cccnc1Br` [Compound I-1-578], 1.57.
Consider `O=C(Nc1nn(-c2ncccc2F)c2ccccc12)c1ccccc1Br` [Compound I-5-4], for which the “log P” value came to 2.67.
Regarding `CC1=C(C(=O)Nc2ccn(-c3c(F)cccc3F)n2)SCCO1` [Compound I-1-101], the “log P” value came out at 2.41.
Take `O=C(Nc1ccn(-c2ccccc2Cl)n1)c1cccnc1Br` [Compound I-1-358]: the “log P” value worked out at 2.22.
Regarding `Cn1cc([N+](=O)[O-])c(C(=O)Nc2ccn(-c3c(F)cccc3F)n2)n1` [Compound I-1-241], the “log P” value is given as 1.90.
Same read-out and setting: with `Cc1cccc(C)c1C(=O)Nc1ccn(-c2ncc(F)cc2F)n1` [Compound I-1-480] the figure was 2.51; with `O=C(Nc1cnn(-c2ncccc2Cl)n1)c1ccccc1Cl` [Compound I-2-12], 2.22; with `O=C(c1cccnc1C(F)(F)F)N(C(=O)c1cccnc1C(F)(F)F)c1ccn(-c2ncccc2F)n1` [Compound I-1-134], 2.93.
For `Cc1occc1C(=O)Nc1ccn(-c2ccccc2Cl)n1` [Compound I-1-370], the “log P” value is given as 2.71.
In the case of `CCn1nc(C)c(Cl)c1C(=O)Nc1ccn(-c2c(F)cccc2F)n1` [Compound I-1-309], the log partition coefficient (log P) turned out to be 3.15.
As to `O=C(Nc1ccn(-c2cnc(Cl)cn2)n1)c1cccnc1C(F)(F)F` [Compound I-1-386], the “log P” value amounted to 2.45.
For `O=C(Nc1cnn(-c2ncccc2Cl)n1)c1cccnc1Cl` [Compound I-2-56], the “log P” value came to 1.66.
On the same count and under the same terms, with `O=C(Nc1ccn(-c2cc(F)ccc2F)n1)c1ncccc1Cl` [Compound I-1-220] the figure was 3.00.
The same measure, in the same setting: to `O=C(Nc1cnn(-c2ncccc2Cl)n1)c1cccnc1C(F)(F)F` [Compound I-2-55] belongs 1.95; to `O=C(Nc1ccn(-c2c(Cl)cccc2Cl)n1)c1ccccc1Br` [Compound I-1-122], 2.88; to `Cn1ncc(I)c1C(=O)Nc1ccn(-c2c(F)cccc2F)n1` [Compound I-1-324], 2.46.
In the case of `CCCc1nn(C)c(C(=O)Nc2ccn(-c3ncc(F)cc3F)n2)c1Cl` [Compound I-1-531], the “log P” value came out at 3.42.
In the case of `O=C(Nc1ccn(-c2ncc(F)cn2)n1)c1ccccc1Cl` [Compound I-1-604], the “log P” value amounted to 1.91.
The same measure, in the same setting: with `O=C(Nc1cnn(-c2ncc(C(F)(F)F)cc2Cl)n1)c1ccccc1C(F)(F)F` [Compound I-2-74] the figure was 3.28.
In the case of `CCc1cc(NC(=O)c2ccccc2C(F)(F)F)nn1-c1ccc(F)cc1F` [Compound I-1-201], the “log P” value is listed as 4.15.
Take `Cc1nonc1C(=O)Nc1ccn(-c2c(F)cccc2F)n1` [Compound I-1-116]: the “log P” value was 2.53.
The same measure, in the same setting: to `O=C(Nc1ccn(-c2ccccc2[N+](=O)[O-])n1)c1ccccc1I` [Compound I-1-419] belongs 2.61.
Consider `O=C(Nc1ccn(-c2c(F)cccc2F)n1)c1sccc1I` [Compound I-1-104], for which the “log P” value is given as 2.96.
Consider `O=C(Nc1ccn(-c2c(F)cccc2F)n1)c1ccc[n+]([O-])c1C(F)(F)F` [Compound I-1-243], for which the “log P” value came out at 1.80.
With `CCc1nccnc1C(=O)Nc1ccn(-c2c(F)cccc2F)n1` [Compound I-1-285], the “log P” value came out at 2.65.
Consider `O=C(Nc1cnn(-c2ncc(Cl)cc2Cl)n1)c1ccccc1I` [Compound I-2-65], for which the “log P” value came out at 3.04.
Take `CCc1ccccc1C(=O)Nc1ccn(-c2c(F)cccc2F)n1` [Compound I-1-78]: the “log P” value turned out to be 2.92.
Same read-out and setting: to `Cc1cc(NC(=O)c2ccccc2Br)nn1-c1ccccc1Cl` [Compound I-1-356] belongs 2.45; to `O=C(Nc1ccn(-c2ncc(F)cc2F)n1)c1ccccc1OC(F)F` [Compound I-1-458], 2.53; to `O=C(Nc1ccn(-c2ncc(Cl)cc2Cl)n1)c1ccccc1Cl` [Compound I-1-432], 2.91.
As for `O=C(Nc1cnn(-c2ncc(F)cc2F)n1)c1ncccc1C(F)(F)F` [Compound I-2-84], the lipophilicity (log P) is 2.28.
On to `CC1=C(C(=O)Nc2ccn(-c3c(F)cccc3F)n2)S(=O)(=O)CCO1` [Compound I-1-616], for which the “log P” value is 1.80.
On the same count and under the same terms, to `O=C(Nc1ccn(-c2ncc(F)cc2F)n1)c1snc(Cl)c1Cl` [Compound I-1-159] belongs 3.06; to `O=C(Nc1cnn(-c2ccccc2Cl)n1)c1cccnc1Cl` [Compound I-2-5], 2.20.
Take `O=C(Nc1ccn(-c2nccnc2F)n1)c1ccccc1Br` [Compound I-1-175]: the “log P” value is 2.09.
With `O=C(Nc1ccn(-c2cccc(Cl)c2F)n1)c1c(F)cccc1F` [Compound I-1-556], the “log P” value is 3.12.
As to `O=C(Nc1ccn(-c2ccccc2Cl)n1)c1nccnc1C(F)(F)F` [Compound I-1-44], the “log P” value was found to be 2.74.
Take `Cc1nn(-c2ccccc2Cl)nc1NC(=O)c1ccccc1I` [Compound I-2-24]: the “log P” value was 2.92.
Take `Cc1nn(C(F)F)c(C(=O)Nc2ccn(-c3c(F)cccc3F)n2)c1Cl` [Compound I-1-306]: the “log P” value amounted to 3.11.
`COc1ccccc1-n1ccc(NC(=O)c2cccnc2Br)n1` [Compound I-1-409]: the “log P” value turned out to be 2.12.
For `O=C(Nc1ccn(-c2cccc(Cl)c2F)n1)c1ccccc1Cl` [Compound I-1-559], the “log P” value amounted to 3.30.
Consider `O=C(Nc1ccn(-c2ccccc2Br)n1)c1cccnc1C(F)(F)F` [Compound I-1-56], for which the “log P” value is on record as 2.54.
For the compound `Cc1cc(NC(=O)c2cccnc2C(F)(F)F)nn1-c1ccccc1Cl` [Compound I-1-349], the “log P” value is given as 2.13.
For the compound `Cc1nn(C)c(C)c1C(=O)Nc1ccn(-c2c(F)cccc2F)n1` [Compound I-1-109], the “log P” value is 1.77.
Turning to `CCN(C(=O)c1ccccc1C(F)(F)F)c1ccn(-c2c(F)cccc2F)n1` [Compound I-1-254], the lipophilicity (log P) is reported as 3.31.
For the compound `O=C(c1ccccc1C(F)(F)F)N(CC1CC1)c1ccn(-c2ncc(F)cc2F)n1` [Compound I-1-471], the “log P” value is on record as 3.62.
Consider `CCc1cc(NC(=O)c2c(F)cccc2F)nn1-c1ccc(F)cc1F` [Compound I-1-207], for which the “log P” value turned out to be 3.84.
For the compound `O=C(Nc1ccn(-c2ncccc2Cl)n1)c1ccccc1I` [Compound I-1-138], the “log P” value amounted to 2.36.
On to `CSc1ncccc1C(=O)Nc1ccn(-c2ncc(F)cc2F)n1` [Compound I-1-461], for which the “log P” value is 2.14.
The same measure, in the same setting: with `O=C(Nc1ccn(-c2ccccn2)n1)c1ccccc1Br` [Compound I-1-127] the figure was 2.36; with `O=C(Nc1ccn(-c2c(F)cccc2F)c1)c1ccccc1I` [Compound I-3-3], 2.96; with `COc1ccc(C(=O)Nc2ccn(-c3c(F)cccc3F)c2)c(Cl)c1` [Compound I-3-4], 2.97.
For `CS(=O)(=O)c1ccccc1-n1ccc(NC(=O)c2ccccc2I)n1` [Compound I-1-184], the “log P” value turned out to be 2.10.
Turning to `O=C(Nc1ccn(-c2c(F)cccc2F)c1)c1cccnc1C(F)(F)F` [Compound I-3-5], the “log P” value stood at 2.52.
